Data published in ChEMBL document CHEMBL3603792, “The discovery of oxazolones-grafted spirooxindoles via three-component diversity oriented synthesis and their preliminary biological evaluation” (Bioorg Med Chem Lett, 2015).
Activity calls are given as the source filed them. The rule behind the calls is not given here.

How the values were obtained:
PANC-1 = assay: Cytotoxicity against human PANC1 cells assessed as inhibition of cell growth at 10 ug/ml incubated for 48 hrs by MTT assay; assay type: functional, cell-based
MCF7 [1] = assay: Cytotoxicity against human MCF7 cells assessed as inhibition of cell growth at 10 ug/ml incubated for 48 hrs by MTT assay; assay type: functional, cell-based
HepG2 [2] = assay: Cytotoxicity against human HepG2 cells assessed as inhibition of cell growth at 10 ug/ml incubated for 48 hrs by MTT assay; assay type: functional, cell-based
HeLa [3] = assay: Cytotoxicity against human HeLa cells assessed as inhibition of cell growth at 10 ug/ml incubated for 48 hrs by MTT assay; assay type: functional, cell-based
A-375 = assay: Cytotoxicity against human A375 cells assessed as inhibition of cell growth at 10 ug/ml incubated for 48 hrs by MTT assay; assay type: functional, cell-based
A549 = assay: Cytotoxicity against human A549 cells assessed as inhibition of cell growth at 10 ug/ml incubated for 48 hrs by MTT assay; assay type: functional, cell-based
SK-OV-3 = assay: Cytotoxicity against human SKOV3 cells assessed as inhibition of cell growth at 10 ug/ml incubated for 48 hrs by MTT assay; assay type: functional, cell-based
K562 = assay: Cytotoxicity against human K562 cells assessed as inhibition of cell growth at 10 ug/ml incubated for 48 hrs by MTT assay; assay type: functional, cell-based
MCF7 [4] = assay: cells; assay type: functional, cell-based; conditions: Homo sapiens, MCF7, 48 h
Description: Cytotoxicity against human MCF7 cells assessed as inhibition of cell growth incubated for 48 hrs by MTT assay

MDA-MB-231 = assay: cells; assay type: functional, cell-based; conditions: Homo sapiens, MDA-MB-231, 48 h
Description: Cytotoxicity against human MDA-MB-231 cells assessed as inhibition of cell growth incubated for 48 hrs by MTT assay

MDA-MB-468 = assay: cells; assay type: functional, cell-based; conditions: Homo sapiens, MDA-MB-468, 48 h
Description: Cytotoxicity against human MDA-MB-468 cells assessed as inhibition of cell growth incubated for 48 hrs by MTT assay

HepG2 [5] = assay: cells; assay type: functional, cell-based; conditions: Homo sapiens, HepG2, 48 h
Description: Cytotoxicity against human HepG2 cells assessed as inhibition of cell growth incubated for 48 hrs by MTT assay

cells [6] = assay type: functional, cell-based; conditions: Homo sapiens, HCCC9810, 48 h
Description: Cytotoxicity against human HCCC9810 cells assessed as inhibition of cell growth incubated for 48 hrs by MTT assay

cells [7] = assay type: functional, cell-based; conditions: Homo sapiens, Huh-7, 48 h
Description: Cytotoxicity against human HuH7 cells assessed as inhibition of cell growth incubated for 48 hrs by MTT assay

MCF7 [8] = assay: Induction of apoptosis in human MCF7 cells at 50 uM incubated for 24 hrs by Hoechst 33342 staining; assay type: functional, cell-based
HeLa [9] = assay: Induction of apoptosis in human HeLa cells incubated for 12 hrs by Annexin V-FITC/PI staining based flow cytometry (reference value: 3.37%); assay type: functional
HeLa [10] = assay: Induction of apoptosis in human HeLa cells incubated for 24 hrs by Annexin V-FITC/PI staining based flow cytometry (reference value: 3.37%); assay type: functional
MCF7 [11] = assay: Induction of apoptosis in human MCF7 cells assessed as increase in PARP cleavage incubated for 24 hrs by Western blotting method; assay type: functional, cell-based

SMILES | growth inhibition (GI) (PANC-1) | growth inhibition (GI) (MCF7 [1]) | growth inhibition (GI) (HepG2 [2]) | growth inhibition (GI) (HeLa [3]) | growth inhibition (GI) (A-375) | growth inhibition (GI) (A549) | growth inhibition (GI) (SK-OV-3) | growth inhibition (GI) (K562) | IC50 (MCF7 [4]) [µM] | IC50 (MDA-MB-231) [µM] | IC50 (MDA-MB-468) [µM] | IC50 (HepG2 [5]) [µM] | IC50 (cells [6]) [µM] | IC50 (cells [7]) [µM] | Activity (MCF7 [8]) | Activity (HeLa [9]) [%] | Activity (HeLa [10]) [%] | Activity (MCF7 [11])
O=C1OC(c2ccccc2)=N[C@@]12[C@H](c1ccccc1)[C@H]1CCCN1[C@]21C(=O)Nc2ccccc21 | Active | Active | Active | Active | Active | Active | Active | Active | – | – | – | – | – | – | – | – | – | –
O=C1OC(c2ccccc2)=N[C@@]12[C@H](c1ccc(Cl)c(Cl)c1)[C@H]1CCCN1[C@]21C(=O)Nc2ccccc21 | Active | Active | Active | Active | Active | Active | Active | Active | – | – | – | – | – | – | – | – | – | –
CN1C(=O)[C@@]2(c3ccccc31)N(C)C[C@@H](c1cccc(Cl)c1)[C@@]21N=C(c2ccccc2)OC1=O | Active | Active | Active | Active | Active | Active | Active | Active | – | – | – | – | – | – | – | – | – | –
CN1C[C@@H](c2ccccc2)[C@@]2(N=C(c3ccccc3)OC2=O)[C@@]12C(=O)Nc1ccccc12 | Active | Active | Active | Active | Active | Active | Active | Active | – | – | – | – | – | – | – | – | – | –
O=C1OC(c2ccccc2)=N[C@@]12[C@H](c1cccc(Cl)c1)[C@H]1CCCN1[C@]21C(=O)Nc2ccc(Cl)cc21 | Active | Active | Active | Active | Active | Active | Active | Active | – | – | – | – | – | – | – | – | – | –
O=C1OC(c2ccccc2)=N[C@@]12[C@H](c1ccc(C(F)(F)F)cc1)[C@H]1CCCN1[C@]21C(=O)Nc2ccccc21 | Active | Active | Active | Active | Active | Active | Active | Active | 8.1 | 4.2 | 3.4 | 8.7 | 7.2 | 7.9 | Active | 16.17 | 44.64 | Active
O=C1OC(c2ccccc2)=N[C@@]12[C@H](c1ccccc1)[C@H]1CSCN1[C@]21C(=O)Nc2ccccc21 | Active | Active | Active | Active | Active | Active | Active | Active | – | – | – | – | – | – | – | – | – | –
O=C1OC(c2ccccc2)=N[C@@]12[C@H](c1ccccc1)[C@H]1CCCN1[C@]21C(=O)N(Cc2ccccc2)c2ccccc21 | Active | Active | Active | Active | Active | Active | Active | Active | – | – | – | – | – | – | – | – | – | –
O=C1OC(c2ccccc2)=N[C@@]12[C@H](c1ccccc1)CN[C@]21C(=O)Nc2ccccc21 | Active | Active | Active | Active | Active | Active | Active | Active | – | – | – | – | – | – | – | – | – | –
COc1cc([C@@H]2[C@H]3CCCN3[C@]3(C(=O)N(Cc4ccccc4)c4ccccc43)[C@]23N=C(c2ccccc2)OC3=O)cc(OC)c1OC | Active | Active | Active | Active | Active | Active | Active | Active | – | – | – | – | – | – | – | – | – | –
CNC(=O)c1cc(Oc2ccc(NC(=O)Nc3ccc(Cl)c(C(F)(F)F)c3)cc2)ccn1 [SORAFENIB] | – | – | – | – | – | – | – | – | 5.5 | 5.1 | 4.9 | 6.7 | > 10 | 7.1 | – | – | – | –
O=C1OC(c2ccccc2)=N[C@@]12[C@H](c1ccc(Cl)c(Cl)c1)[C@H]1CCCN1[C@]21C(=O)N(Cc2ccccc2)c2ccccc21 | Active | Active | Active | Active | Active | Active | Active | Active | – | – | – | – | – | – | – | – | – | –
O=C1OC(c2ccccc2)=N[C@@]12[C@H](c1cccc(Cl)c1)[C@H]1CCCN1[C@]21C(=O)Nc2ccccc21 | Active | Active | Active | Active | Active | Active | Active | Active | – | – | – | – | – | – | – | – | – | –
CN1C[C@@H](c2ccc(Cl)c(Cl)c2)[C@@]2(N=C(c3ccccc3)OC2=O)[C@@]12C(=O)N(Cc1ccccc1)c1ccccc12 | Active | Active | Active | Active | Active | Active | Active | Active | – | – | – | – | – | – | – | – | – | –
CN1C[C@@H](c2ccccc2)[C@@]2(N=C(c3ccccc3)OC2=O)[C@@]12C(=O)N(Cc1ccccc1)c1ccccc12 | Active | Active | Active | Active | Active | Active | Active | Active | – | – | – | – | – | – | – | – | – | –
CN1C[C@@H](c2ccco2)[C@@]2(N=C(c3ccccc3)OC2=O)[C@@]12C(=O)N(Cc1ccccc1)c1ccccc12 | Active | Active | Active | Active | Active | Active | Active | Active | – | – | – | – | – | – | – | – | – | –
